Data reported in patent publication US20240228490A1, “HETEROCYCLIC DERIVATIVE INHIBITOR AND PREPARATION METHOD THEREFOR AND APPLICATION THEREOF” (Shanghai Hansoh Biomedical Co., Ltd., priority 2021, published 2024).
Read-outs that look alike come from different tables or passages of the source.

What was measured:
[1] = PK part of PK/PD study in MDA-MB-436 subcutaneous xenograft model: plasma and tumor concentration; assay type: in vivo, BALB/c nude mice; settings: female, BALB/c nude, mouse, single oral 0.3 mg/kg
Description: • a. […] Cells were passaged once every three days. […] The resulting suspension was placed in an ice box for later use.
• a. […] During the inoculation, the cell suspension was mixed well. […] The nude mouse was bound with the left hand. […] Inoculation started after 30 seconds. • d.
• a. Grouping: According to the growth of the tumor, when the tumor grew to a volume of 300-500 mm^3, tumor-bearing mice were selected according to the experimental design and randomly grouped (3 mice per each time point) to start the PK/PD test. • b. Fasting: All tumor-bearing mice were fasted (with free access to water) overnight (fasting >8 hours) before the administration. • c. Administration: Except for the blank control group, a single oral administration was carried out according to the time of the experimental design, and the administration volume was 10 mL/kg. • d. Sample collection: The mice were euthanized by CO2 asphyxiation according to the time of the experimental design, and the samples were collected. One plasma sample and three tumor tissue samples were collected from each animal.
Plasma collection: After the mouse was euthanized, blood was collected from the heart. The collected blood was added to a centrifuge tube containing EDTA-K2. The tube was manually inverted 3 to 4 times, placed on ice, and centrifuged at 8000 rpm at 4° C. for 5 minutes. 100 μL of the centrifuged plasma was transferred to a new labeled centrifuge tube. One aliquot of plasma was quickly freezed on dry ice, and stored in a refrigerator at −80±10° C. for PK test.
Tumor tissue collection: After the blood collection, the tumor tissue was collected. The collected tumor tissue was divided into 3 aliquots (˜0.1 g each), placed into labeled 2 mL centrifuge tubes, and stored in a refrigerator at −80±10° C. for PK or PD test.
a. Sample Process: • 1) 4 parts by weight of 20% methanol in water was added to 1 part by weight of the tumor tissue sample, and homogenized at 40 Hz for 400 seconds.

[2] = Bidirectional permeability through Caco-2 cell model; settings: human
Protocol: 100 μL of transport buffer (HBSS containing 10 μM test compound, 0.5% BSA, and 0.5% DMSO) was added to the administration end of A to B • b. 300 μL of transport buffer (HBSS containing 0.5% BSA) was added to the receiving end of A to B • c. 300 μL of transport buffer (HBSS containing 10 μM test compound, 0.5% BSA, and 0.5% DMSO) was added to the administration end of B to A • d. 100 μL of transport buffer (HBSS containing 0.5% BSA) was added to the receiving end of B to A • e. Incubation for 2 hours • d. Samples were taken, processed and detected by mass spectrometry.
• Instrument: liquid chromatography; • Chromatographic column: Waters XSelect HSS T3 C18 (2.1*50 mm, 2.5 μm); • Mobile phase: phase A: water containing 0.1% formic acid; phase B: acetonitrile containing 0.1% formic acid.
• Instrument: API4000 liquid chromatography-mass spectrometer; • Ion source: electrospray ionization source (ESI); • Detection method: positive ion detection; • Scan mode: multiple reaction monitoring (MRM) mode.

PARP1 enzyme = PARP1 enzyme (Homo sapiens (Human), UniProt P09874); test: Inhibitory activity on PARP1 enzyme (chemiluminescence); assay type: biochemical
Chain of PARP1 enzyme (P09874 whole entry): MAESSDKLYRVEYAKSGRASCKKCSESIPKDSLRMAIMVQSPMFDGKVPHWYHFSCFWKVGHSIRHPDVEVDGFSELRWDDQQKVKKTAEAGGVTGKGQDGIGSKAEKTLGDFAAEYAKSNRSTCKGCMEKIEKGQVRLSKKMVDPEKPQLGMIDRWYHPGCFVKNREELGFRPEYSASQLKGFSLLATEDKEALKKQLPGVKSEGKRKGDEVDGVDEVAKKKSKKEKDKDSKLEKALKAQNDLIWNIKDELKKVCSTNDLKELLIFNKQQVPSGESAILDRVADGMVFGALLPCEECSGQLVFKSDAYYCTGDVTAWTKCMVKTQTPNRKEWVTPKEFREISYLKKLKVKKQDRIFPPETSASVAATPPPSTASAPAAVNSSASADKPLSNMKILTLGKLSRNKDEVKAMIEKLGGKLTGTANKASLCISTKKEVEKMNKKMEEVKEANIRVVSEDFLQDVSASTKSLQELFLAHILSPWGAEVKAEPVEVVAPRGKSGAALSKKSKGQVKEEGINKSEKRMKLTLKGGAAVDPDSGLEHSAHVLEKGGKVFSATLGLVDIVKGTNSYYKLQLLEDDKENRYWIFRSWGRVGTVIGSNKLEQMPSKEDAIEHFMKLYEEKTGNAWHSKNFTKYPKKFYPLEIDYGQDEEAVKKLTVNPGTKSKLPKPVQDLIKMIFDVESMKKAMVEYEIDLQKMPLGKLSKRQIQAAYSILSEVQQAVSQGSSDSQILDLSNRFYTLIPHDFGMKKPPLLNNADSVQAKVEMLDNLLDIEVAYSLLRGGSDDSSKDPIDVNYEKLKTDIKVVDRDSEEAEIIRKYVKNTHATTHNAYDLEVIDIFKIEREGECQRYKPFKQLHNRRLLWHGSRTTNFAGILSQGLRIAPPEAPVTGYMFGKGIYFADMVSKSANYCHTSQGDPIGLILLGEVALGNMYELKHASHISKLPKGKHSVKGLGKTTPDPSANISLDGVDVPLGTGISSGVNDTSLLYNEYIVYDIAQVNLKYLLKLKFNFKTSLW
Protocol: The inhibitory activity of the compounds on PARP1 enzyme was determined by the chemiluminescence method in the experiment. The experiment was carried out in a 384-well plate. Coating histones in a 384-well plate: 5×histone solution was diluted 5 folds with PBS, added to a 384-well ELISA plate (25 μL per well), and incubated at 4° C. overnight. […] A mixture of PARP reaction biotin-labeled substrate, activated DNA, 10×PARP buffer and water was added (12.5 μL per well). Compound solutions with different concentrations were formulated using the experimental buffer (10% DMSO aqueous solution containing 1.25 mM DTT). The final detection concentration started from 100 nM, with 3-fold dilution and 8 concentrations. The compound solutions were added to the reaction wells of the 384-well plate (2.5 μL per well). 2.5 μL of 10% DMSO aqueous solution containing 1.25 mM DTT was added to the positive control well and blank well (2.5 μL per well). […] The plate was centrifuged at 1000 rpm for 1 minute, and reacted at room temperature for 60 minutes. […] Streptavidin-HRP solution diluted 50 folds with Blocking buffer 3 was added (25 μL per well), and the plate was incubated at room temperature for 30 minutes. […] The luminescence reaction solution obtained by mixing ECL substrate A and ELISA ECL substrate B (1:1) was added (50 μL per well) for reaction. The chemiluminescence values were measured immediately with a BioTek Synergy H1 or Envision instrument.
The chemiluminescence values were measured with a BioTek Synergy H1 or Envision instrument. The inhibition rate was calculated, and the concentration and inhibition rate were fitted to a nonlinear regression curve using Graphpad Prism software to obtain the IC50 value.

[3] = test system: BRCA2 Knockout DLD-1 cells; test: Inhibition of proliferation of BRCA2 Knockout DLD-1 cells (CellTiter-Glo); assay type: cell-based; settings: Homo sapiens, about 144 hours incubation
Protocol: BRCA2 Knockout DLD-1 cells were cultured using RPMI1640 culture medium containing 10% FBS to an appropriate cell density. The cells were collected, and adjusted to an appropriate cell concentration using the complete culture medium. The cell suspension was spread on a 96-well plate (90 μL per well), and placed in a 37° C., 5% CO2 incubator overnight. Compound solutions of different concentrations were formulated using DMSO and culture medium, and vehicle control was set up. The compound solutions were added to the 96-well plate (10 μL per well), and the plate was incubated in a 37° C., 5% CO2 incubator for about 144 hours. CellTiter-Glo solution was added, and the plate was shaken to mix evenly, and incubated in the dark for 10 to 30 minutes. The values were measured with a Synergy H1 or Envision microplate reader.
The inhibition rate was calculated using the luminescence signal value. The concentration and inhibition rate were fitted to a nonlinear regression curve using Graphpad Prism software to obtain the IC50 value.

[4] = plasma, read-out: Mean plasma concentration
[5] = tumor tissue, read-out: Mean tumor tissue concentration

Structure (SMILES)	IC50 (PARP1 enzyme) [nM]	IC50 [3] [nM]	also measured
CCc1cc2ncc(CN3CCN(c4ccc(C(=O)NC)nc4)CC3)cc2[nH]c1=O [AZD5305, reference compound]			concentration at 1 h [1, 4]: 1460 ng/mL; concentration at 2 h [1, 4]: 1370 ng/mL; concentration at 4 h [1, 4]: 1120 ng/mL; concentration at 6 h [1, 4]: 713 ng/mL; concentration at 8 h [1, 4]: 584 ng/mL; concentration at 16 h [1, 4]: 252 ng/mL; concentration at 24 h [1, 4]: 102 ng/mL; concentration at 32 h [1, 4]: 41 ng/mL; concentration at 48 h [1, 4]: 10 ng/mL; concentration at 72 h [1, 4]: 6 ng/mL; concentration at 1 h [1, 5]: 41 ng/g; concentration at 2 h [1, 5]: 100 ng/g; concentration at 4 h [1, 5]: 131 ng/g; concentration at 6 h [1, 5]: 117 ng/g; concentration at 8 h [1, 5]: 95 ng/g; concentration at 16 h [1, 5]: 94 ng/g; concentration at 24 h [1, 5]: 61 ng/g; concentration at 32 h [1, 5]: 59 ng/g; concentration at 48 h [1, 5]: 44 ng/g; concentration at 72 h [1, 5]: 31 ng/g
CCc1cc2ncc(CN3CCC(c4ccc(C(=O)NC)nc4)CC3)cc2[nH]c1=O [Example 2, 5-(1-((7-Ethyl-6-oxo-5,6-dihydro-1,5-naphthyridin-3-yl)methyl)piperidin-4-yl)-N-methylpicolinamide]			Papp A→B at 2 h, 10 μM [2]: 9.42 ×10⁻⁶ cm/s; Papp B→A at 2 h, 10 μM [2]: 13.5 ×10⁻⁶ cm/s
CCc1cc2ncc(CN3CC=C(c4ccc(C(=O)NOC)nc4)CC3)cc2[nH]c1=O [Example 30, 1′-((7-Ethyl-6-oxo-5,6-dihydro-1,5-naphthyridin-3-yl)methyl)-N-methoxy-1′,2′,3′,6′-tetra hydro-[3,4′-bipyridine]-6-carboxamide]	1.4	3.2	
CCc1cc2c(C#N)cc(CN3CC=C(c4ccc(C(=O)NC)nc4)CC3)cc2[nH]c1=O [Example 42, 1′-((5-Cyano-3-ethyl-2-oxo-1,2-dihydroquinolin-7-yl)methyl)-N-methyl-1′,2′,3′,6′-tetrahydro-[3,4′-bipyridine]-6-carboxamide]	1.3	3	
CCc1cc2ncc(CN3CC=C(c4ncc(C)n4C)CC3)cc2[nH]c1=O [Example 53, 7-((4-(1,5-Dimethyl-1H-imidazol-2-yl)-3,6-dihydropyridin-1(2H)-yl)methyl)-3-ethyl-1,5-naphthyridin-2(1H)-one]	0.96	7.5	
CCc1cc2ncc(CN3CC=C(c4ccc(C(=O)NC)nc4Cl)CC3)cc2[nH]c1=O [Example 56, 2-Chloro-1′-((7-ethyl-6-oxo-5,6-dihydro-1,5-naphthyridin-3-yl)methyl)-N-methyl-1′,2′,3′,6′-tetrahydro-[3,4′-bipyridine]-6-carboxamide]	1.3	1	
CCc1cc2ncc(CN3CC=C(c4ccc(C(=O)NCC#N)nc4)CC3)cc2[nH]c1=O [Example 58, N-(Cyanomethyl)-1′-((7-ethyl-6-oxo-5,6-dihydro-1,5-naphthyridin-3-yl)methyl)-1′,2′,3′,6′-tetrahydro-[3,4′-bipyridine]-6-carboxamide]	0.9	2.4	
CCc1cc2ncc(CN3CC=C(c4ccc(C(=O)NC5(C#N)CC5)nc4)CC3)cc2[nH]c1=O [Example 59, N-(1-Cyanocyclopropyl)-1′-((7-ethyl-6-oxo-5,6-dihydro-1,5-naphthyridin-3-yl)methyl)-1′,2′,3′,6′-tetrahydro-[3,4′-bipyridine]-6-carboxamide]	0.8	2.7	
CCc1cc2ncc(CN3CCC(c4ccc(C(=O)NC)nc4)=C(F)C3)cc2[nH]c1=O [Example 81, 1′-((7-Ethyl-6-oxo-5,6-dihydro-1,5-naphthyridin-3-yl)methyl)-5′-fluoro-N-methyl-1′,2′,3′,6′-tetrahydro-[3,4′-bipyridine]-6-carboxamide]	0.9	1.5	
CCc1cc2ncc(CN3CC=C(c4ccc(C(=O)NCC(F)(F)F)nc4)CC3)cc2[nH]c1=O [Example 83, 1′-((7-Ethyl-6-oxo-5,6-dihydro-1,5-naphthyridin-3-yl)methyl)-N-(2,2,2-trifluoroethyl)-1′,2′,3′,6′-tetrahydro-[3,4′-bipyridine]-6-carboxamide]	1.4	1.4	
CNC(=O)c1ccc(C2=CCN(Cc3cnc4cc(C(F)(F)F)c(=O)[nH]c4c3)CC2)cn1 [Example 84, N-Methyl-1′-((6-oxo-7-(trifluoromethyl)-5,6-dihydro-1,5-naphthyridin-3-yl)methyl)-1′,2′,3′,6′-tetrahydro-[3,4′-bipyridine]-6-carboxamide]	2.7	5.1	
CCc1cc2ncc(C(C)N3CC=C(c4ccc(C(=O)NC)nc4)CC3)cc2[nH]c1=O (stereo not drawn) [Example 93, 1′-(1-(7-Ethyl-6-oxo-5,6-dihydro-1,5-naphthyridin-3-yl)ethyl)-N-methyl-1′,2′,3′,6′-tetrahydro-[3,4′-bipyridine]-6-carboxamide]	2.1	3.6	
CCc1cc2ncc(CN3CCN(c4cnc5c(NC)ncc(F)c5c4)CC3)cc2[nH]c1=O [Example 94, 3-Ethyl-7-((4-(5-fluoro-8-(methylamino)-1,7-naphthyridin-3-yl)piperazin-1-yl)methyl)-1,5-naphthyridin-2(1H)-one]		8.4	
[2H]C([2H])([2H])Nc1nccc2cc(N3CCN(Cc4cnc5cc(CC)c(=O)[nH]c5c4)CC3)cnc12 [Example 98, 3-Ethyl-7-((4-(8-((methyl-d3)amino)-1,7-naphthyridin-3-yl)piperazin-1-yl)methyl)-1,5-naphthyridin-2(1H)-one]		1.7	
CCc1cc2ncc(CN3CC=C(c4cnc5c(NC)nccc5c4)CC3)cc2[nH]c1=O [Example 102, 3-Ethyl-7-((4-(8-(methylamino)-1,7-naphthyridin-3-yl)-3,6-dihydropyridin-1(2H)-yl)methyl)-1,5-naphthyridin-2(1H)-one]		5.2	
